Earlier results on one molecule are cited in US20210244680A1, “WEARABLE LIPOSOMAL CANNABIDIOL TRANSDERMAL PATCH” (priority 2020, published 2021).

SMILES strings stand for the structures.

The series relates to rats with arthritis. The following applies: topical gel containing CBD applied to rats with arthritis for 4 days.

For `C=C(C)[C@@H]1CCC(C)=C[C@H]1c1c(O)cc(CCCCC)cc1O` [CBD, Cannabidiol], the “inflammation and signs of pain” value is “significant drop in inflammation and signs of pain”; the side effects entry is recorded as “without additional side effects”.
